Assay results: patent US9181248B2, “[1,2,4]triazolopyridines and their use as phosphodiesterase inhibitors” (LEO Pharma A/S, priority 2011, dated 2015)
pIC50: −log10 of the molar value.

Tests used:
[1] = Keratinocyte stability (KC) assay; assay type: in vitro ADME; conditions: pH 7.4; plated human keratinocytes, 1 μM compound, 37° C.; average of 2 to 4 tests; read-out: KC assay, half-life T½
Procedure: Incubations of test compounds in DMSO, diluted with growing medium, pH ˜7.4, at 1 μM were carried out with plated human keratinocytes. The percentage of organic solvent in the incubations was 0.5%. The incubations were performed at 37° C. with aliquots taken at 0, 60, 120, 240 and 1440 minutes, and reactions were terminated by addition of methanol containing analytical internal standard (IS). The results were expressed as half-life (T½) in minutes calculated from the rate constant (k) (min^−1) of test compound depletion.

[2] = Human whole blood (WB) assay; assay type: in vitro ADME; conditions: pH 7.4, 1 μM compound, 37° C., average of 2 to 4 tests, read-out: WB assay, half-life T½
Procedure: Incubations of test compounds in DMSO, diluted with phosphate buffer, pH 7.4, at 1 μM were carried out with human whole blood. The percentage of organic solvent in the incubations was 1%. The incubations were performed at 37° C. with aliquots taken at 0, 15, 30, 60 and 120 minutes, and reactions were terminated by addition of methanol containing analytical internal standard (IS). The results were expressed as half-life (T½) in minutes calculated from the rate constant (k) (min^−1) of test compound depletion.

[3] = test system: TNF-α release in human peripheral blood mononuclear cells (PBMC); assay: TNF-α release; conditions: 18 h, read-out: TNF-α release assay, IC50
Excerpt: Results are expressed as IC50 values (nM) calculated from inhibition curves using as positive controls the secretion in LPS stimulated wells and as negative controls the secretion in unstimulated cells.

| Compound | half-life at 1 μM [1] [min] | half-life at 1 μM [2] [min] | pIC50 [3] |
| --- | --- | --- | --- |
| COc1ccc(-c2ccc3c(c2)COC3=O)n2nc(C3(C(=O)OCC(C)C)CC3)nc12 [Compound 3, [2-Methylpropyl]1-[8-methoxy-5-(1-oxo-3H-isobenzofuran-5-yl)-[1,2,4]triazolo[1,5-a]pyridin-2-yl]cyclopropanecarboxylate] | > 720 | 16.6 | – |
| COc1ccc(-c2ccc3c(c2)COC3=O)n2nc(C3(C(=O)OC(C)(C)C)CC3)nc12 [Compound 4, Tert-butyl 1-[8-methoxy-5-(1-oxo-3H-isobenzofuran-5-yl)-[1,2,4]triazolo[1,5-a]pyridin-2-yl]cyclopropanecarboxylate] | > 720 | < 11.2 | 7.82 |
| CC[C@@H](C)OC(=O)C1(c2nc3c(OC)ccc(-c4ccc5c(c4)COC5=O)n3n2)CC1 [Compound 2, [(1R)-1-Methylpropyl]1-[8-methoxy-5-(1-oxo-3H-isobenzofuran-5-yl)-[1,2,4]triazolo-[1,5-a]pyridin-2-yl]cyclopropanecarboxylate] | > 720 | 12.6 | 7.80 |
| CC[C@H](C)OC(=O)C1(c2nc3c(OC)ccc(-c4ccc5c(c4)COC5=O)n3n2)CC1 [Compound 1, [(1S)-1-Methylpropyl]1-[8-methoxy-5-(1-oxo-3H-isobenzofuran-5-yl)-[1,2,4]triazolo-[1,5-a]pyridin-2-yl]cyclopropanecarboxylate] | > 720 | 10.7 | 7.89 |
